# Patent US10975114B2, “Bis 2′-5′-RR-(3′F-A)(3′F-A) cyclic dinucleotide compound and uses thereof” (ADURO BIOTECH, INC., priority 2017, dated 2021)
# Columns and labels:
# hSTING REF allele = target: T1, hSTING REF allele (Homo sapiens, UniProt Q86WV6); assay: ITC binding assay, hSTING REF allele; conditions: 25° C., protein 0.1 mM, ligand 0.35 mM
# T1 construct: made in house; host or cells: BL21 Rosetta 2 (DE3) E. coli
# Method: The WT and REF proteins were similarly prepared for use in an ITC binding assay. Expression plasmids were transformed into BL21 Rosetta 2 (DE3) (EMD Millipore) E. coli cells for protein expression. 50 ml starter cultures were grown overnight in 2×YT supplemented with 50 μg/ml kanamycin and 30 μg/ml chloramphenicol. Multi-liter large scale cultures of the same growth media as the starter were inoculated at a ratio of 1:1,000 (V/V) and allowed to grow at 37° C. to an optical density of 0.6, cultures were then shifted to 18° C. Protein expression was induced by the addition of isopropyl β-D-1-thiogalactopyranoside to a final concentration of 0.3 mM. Protein expression was allowed to proceed for 18-24 hrs. Pelleted cells were resuspended in 50 mM Tris pH 7.5, 500 mM NaCl, 10% glycerol, 20 mM imidazole, 1 mM TCEP and complete protease inhibitor cocktail (Sigma). Cells were lysed by sonication (Branson) and insoluble material was removed by centrifugation. Proteins were purified on Ni-NTA resin and concentrated to >10 mg/ml. 6×H-SUMO-STING LBD was further purified by gel filtration chromatography using a High Load 26/600 Superdex 75 column (GE Healthcare) in a buffer of 20 mM Tris pH 7.5, 150 mM NaCl, 5% glycerol and 1 mM TCEP. Peak fractions were concentrated to between 10-15 mg/ml via ultrafiltration aliquoted and flash frozen in liquid nitrogen and stored at […]
# The resulting amino acid sequences for the STING REF allele is as follows: • Allele Name: REF • Amino Acid Sequence:
# Proteins were dialyzed overnight in 20 mM HEPES pH 7.5, 150 mM NaCl. Insoluble material was removed by centrifugation at 31,000×g. The invention compound 2′2′-RR-(3′F-A)(3′F-A) and comparison STING agonists 3′3′-RR-(2′F-A)(2′F-A); 2′3′-RR-(3′F-A)(2′F-A) were resuspended in dialysis buffer. The concentration of both the protein and ligands were checked by spectroscopy and adjusted if necessary.
# STING protein was added to the ITC sample cell at a final concentration of 0.1 mM. The CDN ligand was at a final concentration of 0.35 mM in the syringe. […]
# [1] = system: THP1 cells (hSTING HAQ allele); assay: THP1-Dual IRF-3 luciferase reporter assay without digitonin; assay type: cell-based, human; conditions: 30 min compound incubation, overnight readout of secreted luciferase
# Method: Cells were washed with fresh media and incubated for 30 min at 37° C. with 5% CO2 with compounds in 3-fold titration steps from 2,000 to 0.0338 μM in PB buffer (50 mM 4-(2-hydroxyethyl)-1-piperazineethanesulfonic acid, 100 mM KCl, 3 mM MgCl2, 0.1 mM dithiothreitol, 85 mM sucrose, 1 mM ATP, 0.1 mM GTP and 0.2% bovine serum albumin). After 30 minutes, cells were washed and fresh RPMI media containing 10% FBS was added, and cells were incubated at 37° C. with 5% CO2. Cell culture supernatants from each sample were collected after overnight incubation, and 10 μl of the cell culture supernatants was added to 50 μl QUANTI-Luc reagent (Invivogen). Type I interferon activation was determined by measuring secreted luciferase levels on a SpectraMax M3 spectrophotometer (Molecular Devices). The EC50 value for the same compounds as tested in Example 4 was determined from the dose-response curve for the 10 concentrations from the serial dilution of the compounds in this assay.
# 4T1 mammary carcinoma [2] = assay: Tumor-specific T cells in blood of 4T1 mice (AH1 tetramer flow cytometry); assay type: in vivo, BALB/c mice; conditions: day 7 post IT injection, 0.1, 1 and 10 μg IT doses, compared to HBSS
# Method: To assess the ability of 2′2′-RR-(3′F-A)(3′F-A) to promote anti-tumor immunity in a murine tumor model, 6-8 week old female BALB/c mice (n=8/group) were implanted in both the left and the right flanks with 4T1 mammary carcinoma cells (2×10^5 cells in 100 μL PBS). Mice were treated with 2′2′-RR-(3′F-A)(3′F-A) at 0.1, 1, 10 and 100 μg in a total volume of 40 μL HBSS and compared to Hank's Balanced Salt Solution (HBSS) vehicle control. Compound was administered when tumors reached a volume of approximately 40-50 mm^3 on day 8 post tumor implantation (indicated by dotted line on the x-axis in tumor growth graphs). The compound was administered by a single […] injection into the center of the tumor (intratumoral, IT) using a 27 gauge needle. Tumors were measured twice weekly.
# Lympholyte (Cedarlane) gradient-purified PBMCs (˜1×10^6) were pre-incubated with anti-CD16/32 monoclonal antibody to block potential non-specific binding and labeled with murine T-Select H-2L^d MuLV gp70 Tetramer-[…]-PE (SEQ ID NO: 20, AH1 peptide with PE fluorescent label, MBL), anti-CD4-BUV737 (RMA4-5), anti-CD8α-BUV395 (53-6.7) (BD Biosciences); anti-CD90.2 BV510 (30-H12) (BioLegend) and the Fixable LIVE/DEAD Near-IR viability dye (ThermoFisher). Data were acquired using a LSRFortessa X-20 cytometer with FACSDiva software (BD) and analyzed with FlowJo software (Tree Star).
# 4T1 mammary carcinoma [3] = assay: 4T1 mammary carcinoma dual-flank model, combination with anti-PD-1 antibody; assay type: in vivo, BALB/c mice
# Method: To assess the ability of 2′2′-RR-(3′F-A)(3′F-A) to promote anti-tumor immunity in murine tumor models in combination with an antagonistic anti-PD-1 antibody, 6-8 week old female BALB/c mice (n=8/group) were implanted in both the left and the right flanks with 4T1 mammary carcinoma cells (2×10^5 cells in 100 aL PBS, day 0). Mice were treated with vehicle alone or 1 μg 2′2′-RR-(3′F-A)(3′F-A) in a total volume of 40 aL HBSS by IT injection using a 27 gauge needle when tumors reached a volume of approximately 40-50 mm^3 on day 8 post tumor implantation (indicated by dotted line on the x-axis in tumor growth graphs). Mice were given intraperitoneal (IP) injections of 200 μg control IgG or anti-PD-1 (clone RMP1-14, BioXCell) beginning on the day of 2′2′-RR-(3′F-A)(3′F-A) treatment and then continuing twice per week throughout the duration of the experiment. Some mice were given IP injection of 100 μg anti-CD8 (clone 2.43, BioXCell) on study days 6, 8, 10, 14, and 17 to deplete CD8^+ T cells. Tumors were measured twice weekly.
# [4] = 1 μg IT combined with anti-PD-1 antibody 200 μg IP twice per week
structure (smiles),measurement,setting,value
"Nc1ncnc2c1ncn2[C@@H]1O[C@@H]2CO[P@@](=O)(S)O[C@@H]3[C@H](F)[C@@H](CO[P@@](=O)(S)O[C@@H]1[C@@H]2F)O[C@H]3n1cnc2c(N)ncnc21 [2′2′-RR-(3′F-A)(3′F-A), (1S,3R,6R,8R,9S,11R,14R,16R,17R,18R)-8,16-bis(6-amino-9H-purin-9-yl)-17,18-difluoro-3,11-dimercapto-2,4,7,10,12,15-hexaoxa-3,11-diphosphatricyclo[12.2.1.1^6,9]octadecane 3,11-dioxide]",Kd,hSTING REF allele,0.17 µM
same,EC50,[1],16.6 µM
same,EC50,"[1]; Homo sapiens, THP-1, 0.5 h",< 20 µM
same,frequency of tumor-specific systemic T cells,4T1 mammary carcinoma [2],significantly higher frequency
same,"cures, injected tumor",4T1 mammary carcinoma [3]; 1 μg IT + control IgG,25%
same,"cures, non-injected tumor",4T1 mammary carcinoma [3]; 1 μg IT + control IgG,0%
same,"cures, distal (non-injected) tumor",4T1 mammary carcinoma [3]; [4],62.5%
same,"cures, primary (injected) tumor",4T1 mammary carcinoma [3]; [4],87.5%
